Laboratory results taken from the supplement of paper PMC4862054.

How the values were obtained:
Settings in all cases: incubation time: 72 h
[1] = tested on: MDA-MB-468; assay: normalised viability (% of control), CellTiter-Blue; higher = more viable cells (100 = DMSO, 0 = benzethonium chloride kill control)
Method: (§1)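 DSRT, CellTiter-Blue viability, 72 h incubation. Signal is normalised to DMSO and benzethonium chloride controls. Value is the normalised response at dose 1.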

[2] = tested on: HCC1143; assay: as above
Method: as §1

[3] = tested on: CAL-148; assay: as above
Method: as §1

[4] = tested on: MFM-223; assay: as above
Method: as §1

[5] = tested on: MDA-MB-231; assay: as above
Method: as §1

[6] = tested on: HCC1937; assay: as above
Method: as §1

[7] = tested on: MDA-MB-453; assay: as above
Method: as §1

[8] = tested on: BT-549; assay: as above
Method: as §1

[9] = tested on: Hs578T; assay: as above
Method: as §1

[10] = tested on: HDQ-P1; assay: as above
Method: as §1

[11] = tested on: CAL-85-1; assay: as above
Method: as §1

[12] = tested on: MDA-MB-436; assay: as above
Method: as §1

[13] = tested on: DU-4475; assay: as above
Method: as §1

[14] = tested on: CAL-120; assay: as above
Method: as §1

[15] = tested on: SK-BR-3; assay: as above
Method: as §1

[16] = tested on: MFM-223; assay: drug sensitivity score (DSS), CellTiter-Glo (DSS (AUC-based score)); higher = stronger drug effect (viability inhibition or cytotoxicity); extreme values may be limits of the assay
How it was run: (§2)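 After 72 h of incubation in 384-well plates with compound at 5 concentrations (10-fold steps, 10,000-fold range set per compound), breast cancer cell lines seeded in 20 µl suspension were read first for CellTox Green fluorescence at 485/520 nm. CellTiter-Glo luminescence was measured next, after 10 min at room temperature. Normalisation on each plate used 0.1 % DMSO and a positive kill control, and the drug sensitivity score was computed from the area under the fitted dose-response curve.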

[17] = tested on: MDA-MB-231; assay: as above
How it was run: as §2

[18] = tested on: HCC1937; assay: as above
How it was run: as §2

[19] = tested on: MDA-MB-453; assay: as above
How it was run: as §2

[20] = tested on: BT-549; assay: as above
How it was run: as §2

[21] = tested on: Hs578T; assay: as above
How it was run: as §2

[22] = tested on: HDQ-P1; assay: as above
How it was run: as §2

[23] = tested on: CAL-85-1; assay: as above
How it was run: as §2

[24] = tested on: DU-4475; assay: as above
How it was run: as §2

[25] = tested on: BT-474; assay: as above
How it was run: as §2

[26] = tested on: CAL-120; assay: as above
How it was run: as §2

[27] = tested on: CAL-51; assay: as above
How it was run: as §2

Nc1nc(F)nc2c1ncn2[C@@H]1O[C@H](CO)[C@@H](O)[C@@H]1O [Fludarabine]
normalised viability ([1]; 1 nM): 91.2%
normalised viability ([2]; 1 nM): 86.8%
normalised viability ([3]; 1 nM): 81.9%
normalised viability ([4]; 1 nM): 101%
normalised viability ([5]; 1 nM): 89.1%
normalised viability ([6]; 1 nM): 105%
normalised viability ([7]; 1 nM): 102%
normalised viability ([8]; 1 nM): 110%
normalised viability ([9]; 1 nM): 109%
normalised viability ([10]; 1 nM): 134%
normalised viability ([11]; 1 nM): 92.8%
normalised viability ([12]; 1 nM): 90.5%
normalised viability ([13]; 1 nM): 101%
normalised viability ([14]; 1 nM): 83%
normalised viability ([15]; 1 nM): 98.7%
drug sensitivity score [16]: 0
drug sensitivity score [17]: 0
drug sensitivity score [18]: 0
drug sensitivity score [19]: 0
drug sensitivity score [20]: 0.896
drug sensitivity score [21]: 0
drug sensitivity score [22]: 0
drug sensitivity score [23]: 0.486
drug sensitivity score [24]: 0
drug sensitivity score [25]: 0
drug sensitivity score [26]: 0.352
drug sensitivity score [27]: 0

COc1cc([C@@H]2c3cc4c(cc3[C@@H](O[C@@H]3O[C@@H]5CO[C@@H](c6cccs6)O[C@H]5[C@H](O)[C@H]3O)[C@H]3COC(=O)[C@H]23)OCO4)cc(OC)c1O [Teniposide]
normalised viability ([1]; 1 nM): 98.9%
normalised viability ([2]; 1 nM): 98.1%
normalised viability ([3]; 1 nM): 103%
normalised viability ([4]; 1 nM): 92.1%
normalised viability ([5]; 1 nM): 132%
normalised viability ([6]; 1 nM): 94%
normalised viability ([7]; 1 nM): 113%
normalised viability ([8]; 1 nM): 85%
normalised viability ([9]; 1 nM): 127%
normalised viability ([10]; 1 nM): 104%
normalised viability ([11]; 1 nM): 105%
normalised viability ([12]; 1 nM): 110%
normalised viability ([13]; 1 nM): 94.6%
normalised viability ([14]; 1 nM): 98.2%
normalised viability ([15]; 1 nM): 97.2%
drug sensitivity score [16]: 7.72
drug sensitivity score [17]: 8.09
drug sensitivity score [18]: 6.71
drug sensitivity score [19]: 0
drug sensitivity score [20]: 16.1
drug sensitivity score [21]: 7.63
drug sensitivity score [22]: 4.15
drug sensitivity score [23]: 10.3
drug sensitivity score [24]: 19.4
drug sensitivity score [25]: 11.7
drug sensitivity score [26]: 6.56
drug sensitivity score [27]: 12.1

CCN(CC)CCCC(C)Nc1c2ccc(Cl)cc2nc2ccc(OC)cc12 (configuration not stated) [Mepacrine]
normalised viability ([1]; 0.099 nM): 108%
normalised viability ([1]; 1 nM): 101%
normalised viability ([2]; 0.099 nM): 108%
normalised viability ([2]; 1 nM): 98.1%
normalised viability ([3]; 0.099 nM): 115%
normalised viability ([3]; 1 nM): 96.9%
normalised viability ([4]; 0.099 nM): 103%
normalised viability ([4]; 1 nM): 96%
normalised viability ([5]; 0.099 nM): 95.4%
normalised viability ([5]; 1 nM): 101%
normalised viability ([6]; 0.099 nM): 94.7%
normalised viability ([6]; 1 nM): 86%
normalised viability ([7]; 0.099 nM): 98%
normalised viability ([7]; 1 nM): 106%
normalised viability ([8]; 0.099 nM): 96.1%
normalised viability ([8]; 1 nM): 86.5%
normalised viability ([9]; 0.099 nM): 113%
normalised viability ([9]; 1 nM): 127%
normalised viability ([10]; 0.099 nM): 115%
normalised viability ([10]; 1 nM): 108%
normalised viability ([11]; 0.099 nM): 101%
normalised viability ([11]; 1 nM): 94.5%
normalised viability ([12]; 0.099 nM): 112%
normalised viability ([12]; 1 nM): 101%
normalised viability ([13]; 0.099 nM): 93.5%
normalised viability ([13]; 1 nM): 111%
normalised viability ([14]; 0.099 nM): 114%
normalised viability ([14]; 1 nM): 97.7%
normalised viability ([15]; 0.099 nM): 100%
normalised viability ([15]; 1 nM): 101%
drug sensitivity score [16]: 0
drug sensitivity score [17]: 0
drug sensitivity score [18]: 0
drug sensitivity score [19]: 0
drug sensitivity score [20]: 0
drug sensitivity score [21]: 0
drug sensitivity score [22]: 0
drug sensitivity score [23]: 0
drug sensitivity score [24]: 0
drug sensitivity score [25]: 0
drug sensitivity score [26]: 0
drug sensitivity score [27]: 0

COc1cc2c(Oc3ccc4[nH]c(C)cc4c3F)ncnc2cc1OCCCN1CCCC1 [Cediranib]
normalised viability ([1]; 0.1 nM): 95.8%
normalised viability ([2]; 0.1 nM): 110%
normalised viability ([3]; 0.1 nM): 109%
normalised viability ([4]; 0.1 nM): 101%
normalised viability ([5]; 0.1 nM): 94.4%
normalised viability ([6]; 0.1 nM): 113%
normalised viability ([7]; 0.1 nM): 82.5%
normalised viability ([8]; 0.1 nM): 90.5%
normalised viability ([9]; 0.1 nM): 92%
normalised viability ([10]; 0.1 nM): 81.1%
normalised viability ([11]; 0.1 nM): 107%
normalised viability ([12]; 0.1 nM): 94.8%
normalised viability ([13]; 0.1 nM): 91.1%
normalised viability ([14]; 0.1 nM): 112%
normalised viability ([15]; 0.1 nM): 92.3%
drug sensitivity score [16]: 1.86
drug sensitivity score [17]: 0
drug sensitivity score [18]: 0
drug sensitivity score [19]: 0
drug sensitivity score [20]: 0
drug sensitivity score [21]: 0
drug sensitivity score [22]: 0
drug sensitivity score [23]: 0
drug sensitivity score [24]: 0
drug sensitivity score [25]: 0
drug sensitivity score [26]: 0
drug sensitivity score [27]: 0

CCCS(=O)(=O)Nc1ccc(F)c(C(=O)c2c[nH]c3ncc(-c4ccc(Cl)cc4)cc23)c1F [Vemurafenib]
normalised viability ([1]; 1 nM): 110%
normalised viability ([2]; 1 nM): 93.8%
normalised viability ([3]; 1 nM): 98.4%
normalised viability ([4]; 1 nM): 90.7%
normalised viability ([5]; 1 nM): 113%
normalised viability ([6]; 1 nM): 119%
normalised viability ([7]; 1 nM): 89.8%
normalised viability ([8]; 1 nM): 114%
normalised viability ([9]; 1 nM): 112%
normalised viability ([10]; 1 nM): 96.3%
normalised viability ([11]; 1 nM): 91.6%
normalised viability ([12]; 1 nM): 91.1%
normalised viability ([13]; 1 nM): 88%
normalised viability ([14]; 1 nM): 95.3%
normalised viability ([15]; 1 nM): 92.2%
drug sensitivity score [16]: 0
drug sensitivity score [17]: 0
drug sensitivity score [18]: 0
drug sensitivity score [19]: 0
drug sensitivity score [20]: 0
drug sensitivity score [21]: 0
drug sensitivity score [22]: 0
drug sensitivity score [23]: 0.555
drug sensitivity score [24]: 14.1
drug sensitivity score [25]: 0.633
drug sensitivity score [26]: 0
drug sensitivity score [27]: 2.75

CCc1cncnc1N1CCN(Cc2nc3ccc(C(F)(F)F)cc3[nH]2)CC1
normalised viability ([1]; 1 nM): 109%
normalised viability ([2]; 1 nM): 103%
normalised viability ([3]; 1 nM): 114%
normalised viability ([4]; 1 nM): 103%
normalised viability ([5]; 1 nM): 96.8%
normalised viability ([6]; 1 nM): 86.6%
normalised viability ([7]; 1 nM): 101%
normalised viability ([8]; 1 nM): 98.2%
normalised viability ([9]; 1 nM): 106%
normalised viability ([10]; 1 nM): 106%
normalised viability ([11]; 1 nM): 99%
normalised viability ([12]; 1 nM): 106%
normalised viability ([13]; 1 nM): 93.2%
normalised viability ([14]; 1 nM): 111%
normalised viability ([15]; 1 nM): 88.8%
drug sensitivity score [16]: 0
drug sensitivity score [17]: 0
drug sensitivity score [18]: 0
drug sensitivity score [19]: 1.08
drug sensitivity score [20]: 1.94
drug sensitivity score [21]: 0
drug sensitivity score [22]: 0
drug sensitivity score [23]: 0
drug sensitivity score [24]: 0
drug sensitivity score [25]: 0.467
drug sensitivity score [26]: 0.0627
drug sensitivity score [27]: 7.14
